A value given as a limit tells only on which side of the number the result lay.

Holding throughout (assay type): biochemical
One experiment concerns the target T1, JAK3 (Homo sapiens, UniProt P52333).
T1 sequence (P52333 1-1124): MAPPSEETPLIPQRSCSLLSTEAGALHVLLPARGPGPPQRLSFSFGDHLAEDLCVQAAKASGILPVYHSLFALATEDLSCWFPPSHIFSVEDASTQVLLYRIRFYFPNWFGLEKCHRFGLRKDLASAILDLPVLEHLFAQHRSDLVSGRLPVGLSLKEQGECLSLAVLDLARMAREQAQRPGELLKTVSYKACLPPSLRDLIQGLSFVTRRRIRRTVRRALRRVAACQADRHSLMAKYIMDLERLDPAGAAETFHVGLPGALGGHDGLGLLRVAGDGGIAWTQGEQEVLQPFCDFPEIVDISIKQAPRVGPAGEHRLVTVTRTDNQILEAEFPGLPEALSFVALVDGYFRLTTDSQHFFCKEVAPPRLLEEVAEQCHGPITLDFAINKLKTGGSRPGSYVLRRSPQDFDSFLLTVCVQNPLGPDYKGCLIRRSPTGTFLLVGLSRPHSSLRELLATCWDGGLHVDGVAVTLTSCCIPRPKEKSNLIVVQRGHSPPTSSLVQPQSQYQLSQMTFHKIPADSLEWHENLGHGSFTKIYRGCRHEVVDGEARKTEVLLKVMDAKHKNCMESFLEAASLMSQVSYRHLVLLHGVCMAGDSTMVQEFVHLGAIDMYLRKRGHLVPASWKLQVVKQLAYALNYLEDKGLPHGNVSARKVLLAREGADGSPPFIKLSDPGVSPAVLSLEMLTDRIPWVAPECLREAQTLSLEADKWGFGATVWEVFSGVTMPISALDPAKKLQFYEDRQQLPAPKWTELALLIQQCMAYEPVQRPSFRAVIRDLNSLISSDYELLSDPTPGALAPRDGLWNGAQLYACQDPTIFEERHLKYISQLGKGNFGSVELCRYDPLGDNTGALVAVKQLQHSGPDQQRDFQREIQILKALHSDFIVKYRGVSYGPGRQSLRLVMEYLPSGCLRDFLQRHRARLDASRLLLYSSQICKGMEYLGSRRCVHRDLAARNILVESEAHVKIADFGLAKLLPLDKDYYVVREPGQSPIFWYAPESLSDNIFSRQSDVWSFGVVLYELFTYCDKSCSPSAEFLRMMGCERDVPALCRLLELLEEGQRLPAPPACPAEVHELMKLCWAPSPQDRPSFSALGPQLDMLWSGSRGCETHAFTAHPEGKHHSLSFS
Nature of the experiment: JAK3 inhibition assay (standard radioactive enzyme assay). Conditions: average Ki if more than one value determined.

The next experiment addresses JAK2 (Homo sapiens, UniProt O60674). Nature of the experiment: JAK2 inhibition assay (radioactive enzyme assay, as for JAK3). Conditions: average Ki if more than one value determined. In a few lines:
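Both kinases: poly(Glu)4Tyr substrate in 100 mM HEPES pH 7.4, 10 mM MgCl2, 1 mM DTT. Run 20 min at 25° C, TCA stop, filter-bound ³³P counted, Ki(app) fitted after background subtraction. JAK3: final [γ-³³P]ATP 5 μM, enzyme added as 2 nM solution. JAK2: final poly(Glu)4Tyr 15 μM, final ATP 12 μM.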

The next experiment deals with T2, ROCK I (AA 6-553) (Homo sapiens, UniProt Q13464).
T2 construct: ROCK I (AA 6-553)
T2 sequence (Q13464 6-553, species assumed): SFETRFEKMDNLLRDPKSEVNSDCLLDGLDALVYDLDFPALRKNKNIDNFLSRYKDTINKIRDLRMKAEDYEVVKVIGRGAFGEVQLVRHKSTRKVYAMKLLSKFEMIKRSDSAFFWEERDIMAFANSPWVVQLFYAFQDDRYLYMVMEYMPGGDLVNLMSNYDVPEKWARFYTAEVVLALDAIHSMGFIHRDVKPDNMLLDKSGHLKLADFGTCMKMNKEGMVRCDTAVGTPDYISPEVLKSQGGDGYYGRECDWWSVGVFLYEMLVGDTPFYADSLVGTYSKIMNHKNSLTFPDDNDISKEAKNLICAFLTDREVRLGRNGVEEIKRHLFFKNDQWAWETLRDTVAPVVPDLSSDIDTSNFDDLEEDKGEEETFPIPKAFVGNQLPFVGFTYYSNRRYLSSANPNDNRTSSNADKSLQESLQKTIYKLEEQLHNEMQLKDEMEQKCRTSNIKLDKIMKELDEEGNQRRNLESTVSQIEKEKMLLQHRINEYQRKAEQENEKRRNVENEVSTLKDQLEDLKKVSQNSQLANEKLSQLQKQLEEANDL
The experiment in a line: ROCK inhibition assay, standard coupled enzyme system ("Enzyme"). The conditions noted are these: enzyme-linked assay. In a few lines:
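ROCK I (AA 6-553) at 45 nM and 30 °C with 45 μM ATP and 200 μM peptide, in 100 mM HEPES pH 7.5, 10 mM MgCl2, 25 mM NaCl, 2 mM DTT, 1.5% DMSO. ADP output read by a PK/LDH coupled system: 2.5 mM PEP, 350 μM NADH, 30 μg/ml PK, 10 μg/ml LDH.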

Experiment [1] deals with T3, full length Aurora-A (AA 1-403) (Homo sapiens, UniProt O14965).
T3 construct: full length Aurora-A (AA 1-403)
T3 sequence (O14965 1-403): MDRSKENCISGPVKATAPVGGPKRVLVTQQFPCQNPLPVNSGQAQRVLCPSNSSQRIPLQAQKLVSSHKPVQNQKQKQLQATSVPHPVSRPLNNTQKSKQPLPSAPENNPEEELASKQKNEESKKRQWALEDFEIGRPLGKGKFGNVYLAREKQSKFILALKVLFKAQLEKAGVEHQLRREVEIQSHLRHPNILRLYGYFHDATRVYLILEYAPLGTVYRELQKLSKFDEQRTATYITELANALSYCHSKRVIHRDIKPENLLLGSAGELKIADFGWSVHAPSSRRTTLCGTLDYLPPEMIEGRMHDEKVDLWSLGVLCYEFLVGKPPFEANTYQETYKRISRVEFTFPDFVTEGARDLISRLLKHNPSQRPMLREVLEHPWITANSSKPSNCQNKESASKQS
Nature of the experiment: Aurora-A inhibition assay, standard coupled enzyme system. Conditions: average Ki if more than one value determined.

Chain of JAK2 (O60674 whole entry, species assumed): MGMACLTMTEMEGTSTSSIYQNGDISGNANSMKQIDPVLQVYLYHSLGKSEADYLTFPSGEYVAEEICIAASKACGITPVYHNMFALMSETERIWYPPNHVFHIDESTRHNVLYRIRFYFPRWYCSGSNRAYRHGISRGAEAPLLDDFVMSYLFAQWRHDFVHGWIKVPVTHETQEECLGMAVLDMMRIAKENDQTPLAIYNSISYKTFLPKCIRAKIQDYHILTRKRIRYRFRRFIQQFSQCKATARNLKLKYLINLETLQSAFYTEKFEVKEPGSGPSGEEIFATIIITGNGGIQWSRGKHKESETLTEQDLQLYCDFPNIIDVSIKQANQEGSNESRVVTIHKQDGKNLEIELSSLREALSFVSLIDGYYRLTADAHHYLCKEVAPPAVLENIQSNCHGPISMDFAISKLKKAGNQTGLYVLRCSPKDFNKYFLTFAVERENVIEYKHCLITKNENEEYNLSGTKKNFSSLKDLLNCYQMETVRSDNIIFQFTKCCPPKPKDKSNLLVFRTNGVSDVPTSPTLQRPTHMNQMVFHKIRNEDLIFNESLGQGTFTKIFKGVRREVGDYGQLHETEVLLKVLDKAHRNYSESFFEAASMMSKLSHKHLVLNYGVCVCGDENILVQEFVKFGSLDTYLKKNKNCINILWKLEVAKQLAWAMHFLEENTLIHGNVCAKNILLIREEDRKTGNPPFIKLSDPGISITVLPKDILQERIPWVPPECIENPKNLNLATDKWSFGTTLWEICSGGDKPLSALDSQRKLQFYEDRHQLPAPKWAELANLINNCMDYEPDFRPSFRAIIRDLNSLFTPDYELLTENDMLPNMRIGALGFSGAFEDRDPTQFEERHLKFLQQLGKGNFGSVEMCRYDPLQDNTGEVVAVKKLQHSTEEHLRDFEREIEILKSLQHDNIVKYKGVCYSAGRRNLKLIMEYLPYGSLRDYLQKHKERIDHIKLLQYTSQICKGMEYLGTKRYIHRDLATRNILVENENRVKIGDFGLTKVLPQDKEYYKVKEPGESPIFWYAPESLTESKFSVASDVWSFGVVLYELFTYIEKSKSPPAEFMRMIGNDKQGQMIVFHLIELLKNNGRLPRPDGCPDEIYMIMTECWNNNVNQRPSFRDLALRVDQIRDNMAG

For orientation: Ki means a dissociation constant, usually derived from enzyme kinetics or from competition with a known ligand. For the compound `CC(=O)N1[C@H](C)CN(c2cccc(-c3c[nH]c4ncc(NC(=O)c5ccccc5)cc34)n2)C[C@@H]1C` [Compound 156], the Ki on JAK3 was below 500 nM; on JAK2 it was below 500 nM; on ROCK I (AA 6-553), below 500 nM; in experiment [1], 500 to 5000 nM.
As for `CC(=O)N1[C@H](C)CN(c2nc(-c3c[nH]c4ncc(Cl)cc34)ccc2[N+](=O)[O-])C[C@@H]1C` [Compound 75], the Ki (on JAK3; on JAK2; on ROCK I (AA 6-553); in experiment [1]) was below 500 nM throughout.
In the case of `CC(=O)N1[C@H](C)CN(c2nc(-c3c[nH]c4ncc(Cl)cc34)ccc2C#N)C[C@@H]1C` [Compound 92], the inhibition constant Ki (on JAK3; on JAK2; on ROCK I (AA 6-553); in experiment [1]) was below 500 nM each time.
For the compound `COC(=O)c1ccc(NCc2ccccc2)nc1-c1c[nH]c2ncc(Cl)cc12` [Compound 45], the Ki was below 500 nM on JAK3, below 500 nM on JAK2, 500 to 5000 nM on ROCK I (AA 6-553) and below 500 nM in experiment [1].
For the compound `CC(C)CN(C)c1cccc(-c2c[nH]c3ncc(Cl)cc23)n1` [Compound 123], the Ki was below 500 nM on JAK3, below 500 nM at JAK2, 500 to 5000 nM at ROCK I (AA 6-553) and 500 to 5000 nM in experiment [1].
For `OC[C@H](Nc1cccc(-c2c[nH]c3ncc(Cl)cc23)n1)c1ccccc1` [Compound 100], the Ki was below 500 nM on JAK3, below 500 nM at JAK2, 500 to 5000 nM on ROCK I (AA 6-553) and below 500 nM in experiment [1].
Turning to `CC(=O)N1[C@H](C)CN(c2cccc(-c3c[nH]c4ncc(NC(=O)CCCN5CCNCC5)cc34)n2)C[C@@H]1C` [Compound 152], the Ki at JAK3 was below 500 nM; on JAK2, below 500 nM; on ROCK I (AA 6-553) it was 500 to 5000 nM; in experiment [1], 500 to 5000 nM.
In the case of `CC(=O)Nc1cnc2[nH]cc(-c3cccc(N4C[C@@H](C)N(C(C)=O)[C@@H](C)C4)n3)c2c1` [Compound 113], the Ki at JAK3 is below 500 nM; on JAK2, below 500 nM; on ROCK I (AA 6-553) it was 500 to 5000 nM; in experiment [1] it was 500 to 5000 nM.
Regarding `CC(=O)N1[C@H](C)CN(c2ccc(-c3nnn[nH]3)c(-c3c[nH]c4ncc(Cl)cc34)n2)C[C@@H]1C` [Compound 110], the Ki (on JAK3; at JAK2; at ROCK I (AA 6-553); in experiment [1]) was 500 to 5000 nM throughout.
As to `O=C(O)c1ccc(-c2c[nH]c3ncc(Cl)cc23)nc1NCc1ccccc1` [Compound 42], the Ki at JAK3 is below 500 nM; at JAK2, below 500 nM; at ROCK I (AA 6-553), 500 to 5000 nM; in experiment [1], below 500 nM.
Take `CC(=O)N1[C@H](C)CN(c2cccc(-c3c[nH]c4ncc(NC(=O)c5ccccc5F)cc34)n2)C[C@@H]1C` [Compound 172]: the Ki is below 500 nM on JAK3, below 500 nM at JAK2, below 500 nM on ROCK I (AA 6-553) and 500 to 5000 nM in experiment [1].
Regarding `Cc1cnc2[nH]cc(-c3cccc(NCc4ccccc4)n3)c2c1` [Compound 39], the Ki is below 500 nM on JAK3, below 500 nM on JAK2, 500 to 5000 nM at ROCK I (AA 6-553) and below 500 nM in experiment [1].
Consider `OC[C@@H](Nc1cccc(-c2c[nH]c3ncc(Cl)cc23)n1)c1ccccc1` [Compound 101], for which the Ki on JAK3 was below 500 nM; at JAK2, below 500 nM; at ROCK I (AA 6-553) it was 500 to 5000 nM; in experiment [1], below 500 nM.
On to `C=CC(=O)Nc1cnc2[nH]cc(-c3cccc(N4C[C@@H](C)N(C(C)=O)[C@@H](C)C4)n3)c2c1` [Compound 118], for which the Ki was below 500 nM at JAK3, below 500 nM at JAK2, 500 to 5000 nM at ROCK I (AA 6-553) and 500 to 5000 nM in experiment [1].
With `CC(C)[C@@H](C)Nc1cccc(-c2c[nH]c3ncc(Cl)cc23)n1` [Compound 130], the Ki was below 500 nM on JAK3, below 500 nM on JAK2, 500 to 5000 nM on ROCK I (AA 6-553) and below 500 nM in experiment [1].
As for `CCOC(=O)CCC(=O)Nc1cnc2[nH]cc(-c3cccc(N4C[C@@H](C)N(C(C)=O)[C@@H](C)C4)n3)c2c1` [Compound 119], the Ki at JAK3 is below 500 nM; on JAK2, below 500 nM; on ROCK I (AA 6-553), 500 to 5000 nM; in experiment [1] it was 500 to 5000 nM.
`CC(=O)N1[C@H](C)CN(c2nc(-c3c[nH]c4ncc(Cl)cc34)ccc2-c2nnn[nH]2)C[C@@H]1C` [Compound 120]: the Ki was below 500 nM at JAK3, below 500 nM at JAK2, 500 to 5000 nM at ROCK I (AA 6-553) and below 500 nM in experiment [1].
Turning to `CC(=O)N1[C@H](C)CN(c2cc(C(=O)O)cc(-c3c[nH]c4ncc(Cl)cc34)n2)C[C@@H]1C` [Compound 67], the Ki on JAK3 was below 500 nM; on JAK2, below 500 nM; on ROCK I (AA 6-553), 500 to 5000 nM; in experiment [1], below 500 nM.
Regarding `NC(=O)c1ccc(-c2c[nH]c3ncc(Cl)cc23)nc1NCc1ccccc1` [Compound 46], the inhibition constant (Ki) on JAK3 is below 500 nM; on JAK2, below 500 nM; at ROCK I (AA 6-553), 500 to 5000 nM; in experiment [1] it was below 500 nM.
In the case of `CC(=O)N1[C@H](C)CN(c2cccc(-c3c[nH]c4ncc(NC(=O)c5cscn5)cc34)n2)C[C@@H]1C` [Compound 162], the inhibition constant (Ki) was below 500 nM on JAK3, below 500 nM at JAK2, 500 to 5000 nM on ROCK I (AA 6-553) and 500 to 5000 nM in experiment [1].
Consider `N#Cc1cc(-c2c[nH]c3ncc(Cl)cc23)nc(N2CCCNCC2)c1` [Compound 151], for which the Ki (on JAK3; on JAK2; on ROCK I (AA 6-553); in experiment [1]) was below 500 nM in each case.
On to `C=C/C=C/C(=O)Nc1cnc2[nH]cc(-c3cccc(N4C[C@@H](C)N(C(C)=O)[C@@H](C)C4)n3)c2c1` [Compound 191], for which the Ki at JAK3 is below 500 nM; on JAK2, below 500 nM; on ROCK I (AA 6-553), below 500 nM; in experiment [1], 500 to 5000 nM.
Regarding `CC(=O)N1[C@H](C)CN(c2cccc(-c3c[nH]c4ncc(NC(=O)C5=CCCC5)cc34)n2)C[C@@H]1C` [Compound 157], the inhibition constant Ki was below 500 nM at JAK3, below 500 nM at JAK2, 500 to 5000 nM at ROCK I (AA 6-553) and 500 to 5000 nM in experiment [1].
Turning to `CC(=O)N1CCCN(c2cccc(-c3c[nH]c4ncc(F)cc34)n2)CC1` [Compound 49], the Ki at JAK3 was below 500 nM; at JAK2, below 500 nM; on ROCK I (AA 6-553) it was 500 to 5000 nM; in experiment [1] it was 500 to 5000 nM.
Consider `CC(=O)N1[C@H](C)CN(c2cccc(-c3c[nH]c4ncc(C(=O)N(C)C)cc34)n2)C[C@@H]1C` [Compound 60], for which the Ki (at JAK3; on JAK2; at ROCK I (AA 6-553); in experiment [1]) was 500 to 5000 nM each time.
As to `CC(=O)N1[C@H](C)CN(c2cccc(-c3c[nH]c4ncc(NC(=O)C5CC5)cc34)n2)C[C@@H]1C` [Compound 165], the inhibitory constant (Ki) is below 500 nM at JAK3, below 500 nM at JAK2, 500 to 5000 nM on ROCK I (AA 6-553) and 500 to 5000 nM in experiment [1].

The values above are taken from patent publication US8501446B2 (Vertex Pharmaceuticals Incorporated, priority 2004, dated 2013).
